Test results from US20210220420A1, “BOTANICAL COMPOSITIONS OF SALVIA O[…] ACTIVITY IN EXTENDING CHR[…] AND METHODS OF USE” (priority 2016, published 2021).

Assays:
[1] = test system: C. elegans strain with a pharyngeal GFP tag and a bus-5 mutation; test: C. elegans chronological lifespan assay versus small molecule AChE inhibitors (Example 4); type: in vivo; conditions: 10 mg/ml; for maximum improvement in survival: at day 13 (N350), day 12 (N355, N314), day 9 (N354); for improvement in mean life span: vs control
Procedure: The samples were prepared as a DMSO-based 10 mg/ml stock, aliquoted when necessary and a serial dilution of the stock solution was performed for N92-4. The stock solutions were stored at −20° C.
The assay was carried out using the standard C. elegans strain with a pharyngeal GFP tag and a bus-5 mutation. The GFP tag enables images of the worms to be captured using fluorescence microscopy. […] The worms were raised in the presence of a treatment or control on 12 well NGM agar plates, and were maintained at 20° C. with sufficient food (Escherichia coli strain OP-50).
A proprietary data analysis software package was used to analyse the effects of different active ingredients on aspects of worm ageing. The package was developed using a MATLAB image analysis algorithm which was adapted to recognise and count worms based on their fluorescence intensity above background fluorescence. A living worm is distinguished from a dead worm based on the degree of movement between two consecutive images, which enables the number of living and cumulative number of dead worms to be tracked throughout the experiment. […] A selection of images was manually checked to ensure the software had correctly identified the number of worms.
The statistical analysis output of OASIS provides Log-Rank and Fishers Exact Test results. The Log-Rank result is a non-parametric test which compares two survival functions for the overall lifespan assay, providing a reliable p-value summarising the whole experiment. The Fishers Exact Test calculates the significance of survival function comparisons at multiple specific time points throughout the experiment, rather than for the overall lifespan

Yeast = conditions: cited from earlier work

Row | Structure (SMILES) | Restricted mean lifespan [1] | maximum improvement in lifespan [1] | maximum improvement in survival [1] | improvement in mean life span [1] | effect on lifespan (Yeast)
1 | COc1ccc2c3c1O[C@H]1C[C@@H](O)C=C[C@@]31CCN(C)C2 [N354, Galantamine] | 14.05 days | +15.9% | up to +11.6% | +8% | 
2 | CCN(C)C(=O)Oc1cccc([C@H](C)N(C)C)c1 [N355, Rivastigmine] | 14.04 days | +15.6% | up to +13.3% | +7.9% | 
3 | Oc1ccc(C=Cc2cc(O)cc(O)c2)cc1 [Resveratrol] |  |  |  |  | able to increase lifespan in yeast
